# Patent US8785614B2, “Aberrantly methylated genes in pancreatic cancer” (The Johns Hopkins University, priority 2003, dated 2014)
# Where two headings read alike, the source gives them in different places.
# Columns and labels:
# [1] = system: MiaPaCa2 pancreatic cancer cell line
# Protocol: (§1) Mock-treated cells were cultured with the equivalent volume of PBS alone.
# (§2) Total RNA was isolated from cultured cells using TRIZOL reagent (invitrogen, Carlsbad, Calif.) and purified using RNeasy Mini Kit (Qiagen, Valencia, Calif.). First- and second-stranded cDNA was synthesized from 10 μg of total RNA using 17-dT) primer (Genset Corp., La Jolla, Calif.) and Superscript Choice system (Invitrogen). Labeled cRNA was synthesized from the purified cDNA by in vitro transcription reaction using the BioArray High Yield RNA Transcript Labeling Kit (Enzo Diagnostics, Inc., Farmingdale, N.Y.) at 37° C. for 6 h. The cRNA was fragmented at 94° C. for 35 min. in a fragmentation buffer [40 mM Tris-acetate @ pH 8.1, 100 mM potassium acestate, and 30 mM magnesium acetate]. The fragmented cRNA was then hybridized to the Human Genome U133A chips (Affymetrix, Santa Clara, Calif.) with 18462 unique gene/EST transcripts at 45° C. for 16 h. The washing and staining procedure was performed in the Affymetrix Fluidics Station according to the manufacturer's instructions. The probes were then scanned using a laser scanner, and signal intensity for each transcript (background-subtracted and adjusted for noise) was calculated using Microarray Suite Software 5.0 (Affymetrix).
# (§3) Fold change analysis of signal intensities obtained from oligonucleotide microarrays between the two treatment groups was performed using Data Mining software (Afrymetrix).
# (§4) The global changes in gene expression proxies induced by 5Aza-dC in four pancreatic cancer cell lines (AsPCl, Hs766T, MiaPaCa2, and Panel) were determined using the Afrymetrix U133 oligonucleotide microarrays with 18462 probes sets (transcripts) covering over 13000 full-length sequences of known genes.
# [2] = system: Panc1 pancreatic cancer cell line
# Protocol: as §1, §2, §3, §4
compound,measurement,setting,value
"Nc1ncn([C@H]2C[C@H](O)[C@@H](CO)O2)c(=O)n1 [5Aza-dC, 5 aza 2′ deoxycytidine]",Fold-change after 5Aza-dC treatment,"[1]; ANGPT2, MiaPaCa2",2.27 fold
same,Fold-change after 5Aza-dC treatment,"[1]; BARD1, MiaPaCa2",−1.3 fold
same,Fold-change after 5Aza-dC treatment,"[1]; BNIP3, MiaPaCa2",21.32 fold
same,Fold-change after 5Aza-dC treatment,"[1]; BST2, MiaPaCa2",8.59 fold
same,Fold-change after 5Aza-dC treatment,"[1]; CACNA1G, MiaPaCa2",1.61 fold
same,Fold-change after 5Aza-dC treatment,"[1]; CCNE2, MiaPaCa2",1.09 fold
same,Fold-change after 5Aza-dC treatment,"[1]; CDH3, MiaPaCa2",5.79 fold
same,Fold-change after 5Aza-dC treatment,"[1]; CDKN1A (p21), MiaPaCa2",7.04 fold
same,Fold-change after 5Aza-dC treatment,"[1]; CDKN1C, MiaPaCa2",2.28 fold
same,Fold-change after 5Aza-dC treatment,"[1]; CLDN5, MiaPaCa2",1.67 fold
same,Fold-change after 5Aza-dC treatment,"[1]; CSF1, MiaPaCa2",4.23 fold
same,Fold-change after 5Aza-dC treatment,"[1]; DR3, MiaPaCa2",2.12 fold
same,Fold-change after 5Aza-dC treatment,"[1]; FOXE1, MiaPaCa2",3.8 fold
same,Fold-change after 5Aza-dC treatment,"[1]; GAGE1, MiaPaCa2",6.7 fold
same,Fold-change after 5Aza-dC treatment,"[1]; GAGE3, MiaPaCa2",15.22 fold
same,Fold-change after 5Aza-dC treatment,"[1]; GAGE4, MiaPaCa2",47.6 fold
same,Fold-change after 5Aza-dC treatment,"[1]; GAGE6, MiaPaCa2",24.03 fold
same,Fold-change after 5Aza-dC treatment,"[1]; GAGE7, MiaPaCa2",54.35 fold
same,Fold-change after 5Aza-dC treatment,"[1]; HOXA1, MiaPaCa2",2.56 fold
same,Fold-change after 5Aza-dC treatment,"[1]; IGF2, MiaPaCa2",0.81 fold
same,Fold-change after 5Aza-dC treatment,"[1]; IL1R1, MiaPaCa2",−1.77 fold
same,Fold-change after 5Aza-dC treatment,"[1]; ISG20, MiaPaCa2",21.28 fold
same,Fold-change after 5Aza-dC treatment,"[1]; JPH3, MiaPaCa2",1.4 fold
same,Fold-change after 5Aza-dC treatment,"[1]; KLK10, MiaPaCa2",136.95 fold
same,Fold-change after 5Aza-dC treatment,"[1]; LDOC1, MiaPaCa2",−1.01 fold
same,Fold-change after 5Aza-dC treatment,"[1]; LHX1, MiaPaCa2",1.89 fold
same,Fold-change after 5Aza-dC treatment,"[1]; MAGE1, MiaPaCa2",2.27 fold
same,Fold-change after 5Aza-dC treatment,"[1]; MATN1, MiaPaCa2",−1.01 fold
same,"transcripts with >5-fold increase, share of the 18462 transcripts analyzed",[1]; MiaPaCa2,1.4%
same,transcripts with substantial increase (>5-fold) in signal intensities,"[1]; MiaPaCa2, vs mock-treated",251 transcripts
same,Fold-change after 5Aza-dC treatment,"[1]; NEFH, MiaPaCa2",6.73 fold
same,Fold-change after 5Aza-dC treatment,"[1]; NPTX2, MiaPaCa2",6.4 fold
same,Fold-change after 5Aza-dC treatment,"[1]; PAX6, MiaPaCa2",−1.12 fold
same,Fold-change after 5Aza-dC treatment,"[1]; PDYN, MiaPaCa2",3.48 fold
same,Fold-change after 5Aza-dC treatment,"[1]; PLAT, MiaPaCa2",6.4 fold
same,Fold-change after 5Aza-dC treatment,"[1]; PLEK2, MiaPaCa2",7.5 fold
same,Fold-change after 5Aza-dC treatment,"[1]; SARP2, MiaPaCa2",38.33 fold
same,Fold-change after 5Aza-dC treatment,"[1]; SMARCA1, MiaPaCa2",−1.07 fold
same,Fold-change after 5Aza-dC treatment,"[1]; ST14, MiaPaCa2",1.48 fold
same,Fold-change after 5Aza-dC treatment,"[1]; TIMP3, MiaPaCa2",1 fold
same,Fold-change after 5Aza-dC treatment,"[1]; TJP2, MiaPaCa2",8.61 fold
same,Fold-change after 5Aza-dC treatment,"[1]; TNF, MiaPaCa2",31.63 fold
same,Fold-change after 5Aza-dC treatment,"[1]; UCHL1, MiaPaCa2",5.27 fold
same,Fold-change after 5Aza-dC treatment,"[1]; WNT7A, MiaPaCa2",6.24 fold
same,Fold-change after 5Aza-dC treatment,"[1]; XAGE-1, MiaPaCa2",12.99 fold
same,Fold-change after 5Aza-dC treatment,"[1]; granulocytemacrophage colony-stimulating factor (M11734), MiaPaCa2",3.97 fold
same,Fold-change after 5Aza-dC treatment,"[1]; interferon, alpha-inducible protein (NM_022873), MiaPaCa2",11.03 fold
same,Fold-change after 5Aza-dC treatment,"[1]; p53-induced protein (PIGII), MiaPaCa2",5.45 fold
same,Fold-change after 5Aza-dC treatment,"[1]; reprimo, MiaPaCa2",−1.09 fold
same,Fold-change after 5Aza-dC treatment,"[1]; stratifin (14-3-3 sigma), MiaPaCa2",34.77 fold
same,Fold-change after 5Aza-dC treatment,"[1]; stromal antigen 3 (STAG5), MiaPaCa2",4.96 fold
same,Fold-change after 5Aza-dC treatment,"[1]; testin, MiaPaCa2",9.61 fold
same,Fold-change after 5Aza-dC treatment,"[2]; ANGPT2, Panc1",0.91 fold
same,Fold-change after 5Aza-dC treatment,"[2]; BARD1, Panc1",−1.01 fold
same,Fold-change after 5Aza-dC treatment,"[2]; BNIP3, Panc1",−1.07 fold
same,Fold-change after 5Aza-dC treatment,"[2]; BST2, Panc1",−1.04 fold
same,Fold-change after 5Aza-dC treatment,"[2]; CACNA1G, Panc1",5.26 fold
same,Fold-change after 5Aza-dC treatment,"[2]; CCNE2, Panc1",1.52 fold
same,Fold-change after 5Aza-dC treatment,"[2]; CDH3, Panc1",2.31 fold
same,Fold-change after 5Aza-dC treatment,"[2]; CDKN1A (p21), Panc1",1.93 fold
same,Fold-change after 5Aza-dC treatment,"[2]; CDKN1C, Panc1",3.77 fold
same,Fold-change after 5Aza-dC treatment,"[2]; CLDN5, Panc1",1.88 fold
same,Fold-change after 5Aza-dC treatment,"[2]; CSF1, Panc1",−1.91 fold
same,Fold-change after 5Aza-dC treatment,"[2]; FOXE1, Panc1",1.7 fold
same,Fold-change after 5Aza-dC treatment,"[2]; GAGE1, Panc1",0.46 fold
same,Fold-change after 5Aza-dC treatment,"[2]; GAGE3, Panc1",9.78 fold
same,Fold-change after 5Aza-dC treatment,"[2]; GAGE4, Panc1",35.44 fold
same,Fold-change after 5Aza-dC treatment,"[2]; GAGE6, Panc1",35.5 fold
same,Fold-change after 5Aza-dC treatment,"[2]; GAGE7, Panc1",36.1 fold
same,Fold-change after 5Aza-dC treatment,"[2]; HOXA1, Panc1",1.26 fold
same,Fold-change after 5Aza-dC treatment,"[2]; IGF2, Panc1",9.41 fold
same,Fold-change after 5Aza-dC treatment,"[2]; IL1R1, Panc1",1.37 fold
same,Fold-change after 5Aza-dC treatment,"[2]; ISG20, Panc1",−0.84 fold
same,Fold-change after 5Aza-dC treatment,"[2]; JPH3, Panc1",−4.18 fold
same,Fold-change after 5Aza-dC treatment,"[2]; KLK10, Panc1",−1.05 fold
same,Fold-change after 5Aza-dC treatment,"[2]; LDOC1, Panc1",9.19 fold
same,Fold-change after 5Aza-dC treatment,"[2]; LHX1, Panc1",1.79 fold
same,Fold-change after 5Aza-dC treatment,"[2]; MAGE1, Panc1",7.32 fold
same,Fold-change after 5Aza-dC treatment,"[2]; MATN1, Panc1",3.61 fold
same,Fold-change after 5Aza-dC treatment,"[2]; NEFH, Panc1",4.59 fold
same,Fold-change after 5Aza-dC treatment,"[2]; NPTX2, Panc1",18.94 fold
same,Fold-change after 5Aza-dC treatment,"[2]; PAX6, Panc1",4.45 fold
same,Fold-change after 5Aza-dC treatment,"[2]; PDYN, Panc1",4.84 fold
same,Fold-change after 5Aza-dC treatment,"[2]; PLAT, Panc1",2.13 fold
same,Fold-change after 5Aza-dC treatment,"[2]; PLEK2, Panc1",1.08 fold
same,"transcripts with >5-fold increase, share of the 18462 transcripts analyzed",[2]; Panc1,0.6%
same,transcripts with substantial increase (>5-fold) in signal intensities,"[2]; Panc1, vs mock-treated",116 transcripts
same,Fold-change after 5Aza-dC treatment,"[2]; SARP2, Panc1",−1.47 fold
same,Fold-change after 5Aza-dC treatment,"[2]; SMARCA1, Panc1",1.01 fold
same,Fold-change after 5Aza-dC treatment,"[2]; ST14, Panc1",5.1 fold
same,Fold-change after 5Aza-dC treatment,"[2]; TIMP3, Panc1",1.1 fold
same,Fold-change after 5Aza-dC treatment,"[2]; TJP2, Panc1",1.49 fold
same,Fold-change after 5Aza-dC treatment,"[2]; TNF, Panc1",1.18 fold
same,Fold-change after 5Aza-dC treatment,"[2]; UCHL1, Panc1",2.37 fold
same,Fold-change after 5Aza-dC treatment,"[2]; WNT7A, Panc1",3.57 fold
same,Fold-change after 5Aza-dC treatment,"[2]; XAGE-1, Panc1",24.78 fold
same,Fold-change after 5Aza-dC treatment,"[2]; granulocytemacrophage colony-stimulating factor (M11734), Panc1",2.17 fold
same,Fold-change after 5Aza-dC treatment,"[2]; interferon, alpha-inducible protein (NM_022873), Panc1",1.2 fold
same,Fold-change after 5Aza-dC treatment,"[2]; p53-induced protein (PIGII), Panc1",1.04 fold
same,Fold-change after 5Aza-dC treatment,"[2]; reprimo, Panc1",1.03 fold
same,Fold-change after 5Aza-dC treatment,"[2]; stratifin (14-3-3 sigma), Panc1",1.21 fold
same,Fold-change after 5Aza-dC treatment,"[2]; stromal antigen 3 (STAG5), Panc1",6.84 fold
same,Fold-change after 5Aza-dC treatment,"[2]; testin, Panc1",1.57 fold
